Results from article PMC8151276, “An Integrated Approach toward NanoBRET Tracers for Analysis of GPCR Ligand Engagement” (Molecules, 2021).
Where “and” joins values, the source holds several entries; their conditions need not be identical. Identical values can stand only once. Like-named read-outs stand apart in the source and are kept apart here. Values belong to the molecule of their own block, whether it stands above or below them.

Assays:
Type in all cases: binding
HTR2A = biological target: T1, HTR2A (Homo sapiens, UniProt P28223); assay: NanoBRET screen HiBiT-HTR2A in HEK293
T1 construct: purchased Promega (in-house HiBiT-GPCR construct library, NanoBRET)
T1 sequence (P28223 whole entry): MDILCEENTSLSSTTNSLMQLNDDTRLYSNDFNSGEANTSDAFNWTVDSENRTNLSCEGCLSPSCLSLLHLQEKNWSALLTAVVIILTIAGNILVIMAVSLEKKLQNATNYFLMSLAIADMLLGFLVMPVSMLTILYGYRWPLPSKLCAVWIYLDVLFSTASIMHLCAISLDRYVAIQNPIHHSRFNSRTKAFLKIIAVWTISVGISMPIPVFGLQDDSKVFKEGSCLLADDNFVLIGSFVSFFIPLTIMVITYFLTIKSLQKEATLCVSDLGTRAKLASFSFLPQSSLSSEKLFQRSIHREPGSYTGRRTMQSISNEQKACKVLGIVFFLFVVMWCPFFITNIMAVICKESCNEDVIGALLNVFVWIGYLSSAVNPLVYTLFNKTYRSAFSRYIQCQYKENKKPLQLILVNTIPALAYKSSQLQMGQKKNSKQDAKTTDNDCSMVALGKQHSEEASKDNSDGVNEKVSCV

NPY2R = biological target: T2, NPY2R (Homo sapiens, UniProt P49146); assay: NanoBRET screen HiBiT-NPY2R in HEK293
T2 construct: purchased Promega (in-house HiBiT-GPCR construct library, NanoBRET)
T2 sequence (P49146 1-381): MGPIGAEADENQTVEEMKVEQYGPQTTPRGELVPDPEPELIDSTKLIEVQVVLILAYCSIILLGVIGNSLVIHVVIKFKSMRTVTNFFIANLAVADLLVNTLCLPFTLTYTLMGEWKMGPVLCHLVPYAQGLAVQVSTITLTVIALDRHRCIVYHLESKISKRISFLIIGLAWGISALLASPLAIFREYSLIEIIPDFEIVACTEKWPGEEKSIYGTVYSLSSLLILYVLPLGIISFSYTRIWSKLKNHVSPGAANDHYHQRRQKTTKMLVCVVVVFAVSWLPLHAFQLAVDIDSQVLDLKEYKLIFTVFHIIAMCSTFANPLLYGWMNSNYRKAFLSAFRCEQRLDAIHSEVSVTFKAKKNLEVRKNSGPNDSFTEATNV
Experimental: (§1) Each tracer candidate was screened across the entire library of HiBiT-GPCR constructs using NanoBRET as the detection modality. As depicted in Figure 4A, the specificity of interactions was evaluated through decrease in BRET due to competitive displacement of a bound tracer by excess parental compound. Each tracer was analyzed for binding to each HiBiT-GPCR fusion in the absence and in the presence of competing parental compound. Briefly, HEK293 cells were transfected with HiBiT-GPCR constructs diluted into promoterless DNA to reduce expression and maximize translocation to the cell surface. Each tracer candidate was then screened at concentrations of 1 μM and 0.1 μM across cells expressing these fusions. Cells were treated for 1.5 h with tracer either alone or in the presence of 20 μM competing parental compound (i.e., control). BRET was measured upon addition of purified LgBiT and subsequent complementation with HiBiT genetically fused to a GPCR. The specificity of interactions was assessed through a decrease in BRET signal due to competitive displacement of the bound tracer. To further gauge the robustness of these interactions, the fold response over the control (i.e., BRETtracer/BRETcontrol) was calculated. We chose a 1.5-fold response, which translates to ≥7-fold signal over noise as the minimal threshold required to score an interaction as positive. […]. Below we highlight the screening results obtained for our exemplary fluorescent tracers based on Clozapine, Amitriptyline and AZD1283.
(§2) HiBiT-GPCR DNA constructs were diluted in 10 mM Tris pH 8 to a final concentration of 0.01 μg/μL, arrayed in 96-well plates and stored at −20 °C. For transfection, HEK293 cells were suspended in Opti-MEM (without phenol red) supplemented with 2% fetal bovine serum (Seradigm) and 100 units/mL penicillin–streptomycin (Gibco) at a final concentration of 220,000 cells/mL and dispensed into white 96-well plates at 90 μL/well. Subsequent transfections and screens were carried using an Agilent Bravo Automated Liquid Handling Platform. First, the 96-well HiBiT DNA arrays were diluted 25-fold in Opti-MEM (without serum or phenol red) to a final concentration of 0.0004 μg/μL and 20 μL of the diluted DNAs were transferred into new 96-well plates. Next, promoterless carrier DNA (1 μg/μL) was diluted 25-fold (0.04 μg/μL) and then dispensed into the diluted arrays at 20 μL/well. Following brief mixing, Viafect transfection reagent (Promega) diluted 16-fold into Opti-MEM was dispensed into the plates at 40 μL/well. After mixing by pipetting, plates were incubated for 10 min on the pipetting station deck. The DNA-transfection reagent complexes were then added to plates containing cells. To facilitate the screen, 10 μL of DNA-transfection reagent complexes were added in duplicates to the top 4 and bottom 4 rows, resulting in two identical 48-well arrays per plate. Plates with transfected cells were incubated for 18–20 h at 37 °C/5% CO2. A screen of each tracer across the entire library using two different concentrations requires duplicate plates of transfected cells. Depending on the number of tracers being screened, transfections can be scaled up using the same ratios. The next day, for each tracer, four 20× screening solutions in tracer dilution buffer (Promega) were prepared: two duplicates at final concentration of 20 μM and two duplicates at a final concentration of 2 μM. A competing unmodified compound was added to one of each duplicate at a final concentration of 400 μM. The four resulting solutions were diluted 4-fold in Opti-MEM without serum or phenol red to generate 5× solutions (5 µM and 0.5 µM tracer +/− 100 μM competing compound). To screen the library, a BioTek MultiFlo FX liquid dispenser was used to dispense 22.5 µL of tracer solution to the top 4 rows and 22.5 µL tracer + competing compound solution to the 4 bottom rows. Plates were briefly mixed on an orbital shaker and incubated for 1.5 h at room temperature. […]

NPBWR1 = biological target: T3, NPBWR1 (Homo sapiens, UniProt P48145); assay: NanoBRET screen HiBiT-NPBWR1 in HEK293
T3 construct: purchased Promega (in-house HiBiT-GPCR construct library, NanoBRET)
T3 sequence (P48145 1-328): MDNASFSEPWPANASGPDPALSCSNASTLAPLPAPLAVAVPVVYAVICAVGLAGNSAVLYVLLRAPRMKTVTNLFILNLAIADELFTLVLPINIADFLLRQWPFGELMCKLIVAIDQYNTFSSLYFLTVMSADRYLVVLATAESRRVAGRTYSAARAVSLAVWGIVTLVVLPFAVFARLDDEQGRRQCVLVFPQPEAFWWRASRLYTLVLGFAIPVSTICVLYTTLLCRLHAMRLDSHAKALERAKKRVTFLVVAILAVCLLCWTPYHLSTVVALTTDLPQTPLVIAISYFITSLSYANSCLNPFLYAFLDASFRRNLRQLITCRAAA
Experimental: as §1, §2

GRM1 = biological target: T4, GRM1 (Homo sapiens, UniProt Q13255); assay: NanoBRET screen HiBiT-GRM1 in HEK293
T4 construct: purchased Promega (in-house HiBiT-GPCR construct library, NanoBRET)
T4 sequence (Q13255 19-1194): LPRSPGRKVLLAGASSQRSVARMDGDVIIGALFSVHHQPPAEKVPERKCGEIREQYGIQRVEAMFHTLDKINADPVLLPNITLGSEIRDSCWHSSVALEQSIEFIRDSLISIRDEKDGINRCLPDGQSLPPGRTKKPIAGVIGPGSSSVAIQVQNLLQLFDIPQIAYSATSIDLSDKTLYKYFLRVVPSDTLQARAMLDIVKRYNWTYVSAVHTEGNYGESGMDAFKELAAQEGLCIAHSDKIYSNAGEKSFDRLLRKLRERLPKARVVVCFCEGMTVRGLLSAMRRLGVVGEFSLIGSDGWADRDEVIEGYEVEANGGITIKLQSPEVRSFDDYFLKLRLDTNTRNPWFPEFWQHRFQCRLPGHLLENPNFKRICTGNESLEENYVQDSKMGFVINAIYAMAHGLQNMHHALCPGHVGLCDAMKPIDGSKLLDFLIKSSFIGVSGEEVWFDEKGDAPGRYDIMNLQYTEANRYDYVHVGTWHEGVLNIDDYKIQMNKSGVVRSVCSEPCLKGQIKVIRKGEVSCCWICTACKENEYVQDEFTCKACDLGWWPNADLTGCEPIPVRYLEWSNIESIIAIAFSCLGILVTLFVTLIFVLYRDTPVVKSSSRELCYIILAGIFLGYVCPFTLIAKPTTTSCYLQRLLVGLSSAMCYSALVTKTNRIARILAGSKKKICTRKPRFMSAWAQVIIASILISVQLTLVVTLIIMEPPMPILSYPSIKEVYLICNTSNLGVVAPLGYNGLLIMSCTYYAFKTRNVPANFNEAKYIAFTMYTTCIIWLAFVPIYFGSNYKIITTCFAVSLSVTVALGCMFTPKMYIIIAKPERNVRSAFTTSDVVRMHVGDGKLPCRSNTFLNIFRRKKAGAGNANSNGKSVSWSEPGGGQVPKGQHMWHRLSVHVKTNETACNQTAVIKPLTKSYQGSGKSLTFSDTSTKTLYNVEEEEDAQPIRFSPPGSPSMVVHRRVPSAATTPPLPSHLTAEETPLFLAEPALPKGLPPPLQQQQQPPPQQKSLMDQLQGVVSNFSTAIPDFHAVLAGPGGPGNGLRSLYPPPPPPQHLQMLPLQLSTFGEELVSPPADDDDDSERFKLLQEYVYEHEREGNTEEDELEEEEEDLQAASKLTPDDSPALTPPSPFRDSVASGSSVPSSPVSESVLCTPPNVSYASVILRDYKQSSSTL
Experimental: as §1, §2

- NanoBRET Fold Response (HTR2A; 0.1μM tracer): 1.06
- NanoBRET Fold Response (HTR2A; 1μM tracer): 1.06
- NanoBRET Fold Response (NPY2R; 0.1μM tracer): 1.19
- NanoBRET Fold Response (NPY2R; 1μM tracer): 0.85
- NanoBRET Fold Response (NPBWR1; 0.1μM tracer): 0.88
- NanoBRET Fold Response (NPBWR1; 1μM tracer): 0.84
- NanoBRET Fold Response (GRM1; 0.1μM tracer): 1.27
- NanoBRET Fold Response (GRM1; 1μM tracer): 0.47
SMILES: COc1ccc2c(n1)c(CCNC(C)=O)cn2CCNC(=O)CCc1ccc2n1[B-](F)(F)[N+]1=C(c3ccc[nH]3)C=CC1=C2 [Azamelatonin-1-NB590]

- NanoBRET Fold Response (HTR2A; HTR2A, 0.1μM tracer): 2.26
- NanoBRET Fold Response (HTR2A; HTR2A, 1μM tracer): 2.01
- NanoBRET Fold Response (NPY2R; NPY2R, 0.1μM tracer): 0.94
- NanoBRET Fold Response (NPY2R; NPY2R, 1μM tracer): 1.11
- NanoBRET Fold Response (NPBWR1; NPBWR1, 0.1μM tracer): 1.07
- NanoBRET Fold Response (NPBWR1; NPBWR1, 1μM tracer): 1.03
- NanoBRET Fold Response (GRM1; GRM1, 0.1μM tracer): 1.42
- NanoBRET Fold Response (GRM1; GRM1, 1μM tracer): 0.90
SMILES: O=C(CCOCCOCCOCCOCCNC(=O)CCc1ccc2n1[B-](F)(F)[N+]1=C(c3ccc[nH]3)C=CC1=C2)NCCCN1CCN(C2=Nc3cc(Cl)ccc3Nc3ccccc32)CC1 [Clozapine-a-2-NB590]

Continued, molecule first:

SMILES: O=C(CCOCCOCCOCCOCCNC(=O)CCc1ccc2n1[B-](F)(F)[N+]1=C(c3ccc[nH]3)C=CC1=C2)NCCCN1CCN(C2=Nc3ccccc3Oc3ccc(Cl)cc32)CC1 [Loxapine-a-2-NB590]
- NanoBRET Fold Response (HTR2A): 1.71 and 1.28
- NanoBRET Fold Response (NPY2R; NPY2R, tracer 0.1μM): 1.02
- NanoBRET Fold Response (NPY2R; NPY2R, tracer 1μM): 1.17
- NanoBRET Fold Response (NPBWR1; NPBWR1, tracer 0.1μM): 1.02
- NanoBRET Fold Response (NPBWR1; NPBWR1, tracer 1μM): 0.93
- NanoBRET Fold Response (GRM1; GRM1, tracer 0.1μM): 0.93
- NanoBRET Fold Response (GRM1; GRM1, tracer 1μM): 0.59

SMILES: COc1ccccc1N1CCN(CCCCN2C(=O)c3ccc(CNC(=O)CCOCCOCCOCCOCCNC(=O)CCc4ccc5n4[B-](F)(F)[N+]4=C(c6ccc[nH]6)C=CC4=C5)cc3C2=O)CC1 [NAN-190-2-NB590]
- NanoBRET Fold Response (HTR2A): 0.97
- NanoBRET Fold Response (NPY2R; NPY2R, tracer 0.1μM): 1.00
- NanoBRET Fold Response (NPY2R; NPY2R, tracer 1μM): 0.92
- NanoBRET Fold Response (NPBWR1; NPBWR1, tracer 0.1μM): 1.02
- NanoBRET Fold Response (GRM1; GRM1, tracer 0.1μM): 0.35
- NanoBRET Fold Response (GRM1; GRM1, tracer 1μM): 0.92

SMILES: CC(C)N(CC[C@H](c1ccccc1)c1cc(CCNC(=O)CCOCCOCCOCCOCCNC(=O)CCc2ccc3n2[B-](F)(F)[N+]2=C(c4ccc[nH]4)C=CC2=C3)ccc1O)C(C)C [Tolterodine-2-NB590]
- NanoBRET Fold Response (HTR2A; HTR2A, tracer 0.1μM): 1.05
- NanoBRET Fold Response (HTR2A; HTR2A, tracer 1μM): 1.11
- NanoBRET Fold Response (NPY2R; NPY2R, tracer 0.1μM): 1.01
- NanoBRET Fold Response (NPY2R; NPY2R, tracer 1μM): 0.93
- NanoBRET Fold Response (NPBWR1; NPBWR1, tracer 0.1μM): 1.26
- NanoBRET Fold Response (NPBWR1; NPBWR1, tracer 1μM): 0.94
- NanoBRET Fold Response (GRM1; GRM1, tracer 0.1μM): 0.94
- NanoBRET Fold Response (GRM1; GRM1, tracer 1μM): 0.81

SMILES: N#CN=C(NCCCOc1cccc(CN2CCCCC2)c1)NCCNC(=O)CCOCCOCCOCCOCCNC(=O)CCc1ccc2n1[B-](F)(F)[N+]1=C(c3ccc[nH]3)C=CC1=C2 [Aminopotentidine-2-NB590]
- NanoBRET Fold Response (HTR2A; HTR2A, tracer 0.1μM): 0.98
- NanoBRET Fold Response (HTR2A; HTR2A, tracer 1μM): 1.02
- NanoBRET Fold Response (NPY2R; NPY2R, tracer 0.1μM): 0.98
- NanoBRET Fold Response (NPY2R; NPY2R, tracer 1μM): 1.00
- NanoBRET Fold Response (NPBWR1; NPBWR1, tracer 0.1μM): 0.94
- NanoBRET Fold Response (NPBWR1; NPBWR1, tracer 1μM): 0.95
- NanoBRET Fold Response (GRM1; GRM1, tracer 0.1μM): 0.59
- NanoBRET Fold Response (GRM1; GRM1, tracer 1μM): 0.94

SMILES: CCOC(=O)c1cc(C#N)c(N2CCC(C(=O)NS(=O)(=O)Cc3ccccc3/C=C/C(=O)NCCNC(=O)CCc3ccc4n3[B-](F)(F)[N+]3=C(c5ccc[nH]5)C=CC3=C4)CC2)nc1C [AZD1283-1-NB590]
- NanoBRET Fold Response (HTR2A; HTR2A, 0.1μM): 0.96
- NanoBRET Fold Response (HTR2A; HTR2A, 1μM): 1.01
- NanoBRET Fold Response (NPY2R; NPY2R, 0.1μM): 1.04
- NanoBRET Fold Response (NPY2R; NPY2R, 1μM): 1.07
- NanoBRET Fold Response (NPBWR1; NPBWR1, 0.1μM): 1.02
- NanoBRET Fold Response (NPBWR1; NPBWR1, 1μM): 0.98
- NanoBRET Fold Response (GRM1; GRM1, 0.1μM): 1.28
- NanoBRET Fold Response (GRM1; GRM1, 1μM): 0.71
